Tests used:
[1] = molar heat capacity at constant pressure; xn = mol fraction of the nth substance listed; details: 101.3 kPa, Crystal, DSC, x2 = 0
[2] = xn = mol fraction of the nth substance listed; details: 298.15 K, 101.3 kPa, Crystal, x2 = 0
[3] = molar heat capacity at constant pressure; details: 101.33 kPa, Crystal, DSC
[4] = 298.15 K, 101.3 kPa, Crystal

[O-2].[O-2].[U+4] [uranium dioxide] + [O-2].[O-2].[Th+4]
Details | mass density [kg/m3] | molar heat capacity at constant pressure [J/K/mol]
[1], 300 K | – | 64.6
[1], 310 K | – | 66.2
[1], 320 K | – | 66.8
[1], 330 K | – | 67.7
[1], 340 K | – | 68.7
[1], 350 K | – | 69.1
[1], 360 K | – | 69.5
[1], 370 K | – | 70.5
[1], 380 K | – | 71.2
[1], 390 K | – | 71.2
[1], 400 K | – | 72.5
[1], 410 K | – | 72.8
[1], 420 K | – | 73.4
[1], 430 K | – | 73.5
[1], 440 K | – | 74.4
[1], 450 K | – | 74.6
[1], 460 K | – | 74.9
[1], 470 K | – | 75.5
[1], 480 K | – | 76.2
[1], 490 K | – | 76.4
[1], 500 K | – | 76.5
[1], 510 K | – | 76.6
[1], 520 K | – | 76.7
[1], 530 K | – | 77.1
[1], 540 K | – | 77
[1], 550 K | – | 77.1
[1], 560 K | – | 77.3
[1], 570 K | – | 77.9
[1], 580 K | – | 78.2
[1], 590 K | – | 79
[1], 600 K | – | 79.1
[1], 610 K | – | 79.7
[1], 620 K | – | 79.4
[1], 630 K | – | 79.6
[1], 640 K | – | 80.3
[1], 650 K | – | 79.8
[1], 660 K | – | 80.5
[1], 670 K | – | 80.5
[1], 680 K | – | 80.7
[1], 690 K | – | 81.1
[1], 700 K | – | 80.4
[1], 710 K | – | 80.8
[1], 720 K | – | 81.2
[1], 730 K | – | 81.7
[1], 740 K | – | 82.2
[1], 750 K | – | 82.9
[1], 760 K | – | 82.4
[1], 770 K | – | 82.7
[1], 780 K | – | 83.4
[1], 790 K | – | 83.9
[1], 800 K | – | 83.7
[1], 810 K | – | 84.1
[1], 820 K | – | 83.8
[1], 830 K | – | 84.2
[1], 840 K | – | 84.1
[1], 850 K | – | 83.7
[1], 860 K | – | 84.1
[1], 870 K | – | 84.5
[2], From pellet mass and volume | 10570 | –
[2], X-ray diffraction | 10970 | –
[2], buoyancy | 10660 | –

[O-2].[O-2].[U+4] [uranium dioxide]
Details | mass density [kg/m3] | molar heat capacity at constant pressure [J/K/mol]
[3], 300 K | – | 64.6
[3], 310 K | – | 66.2
[3], 320 K | – | 66.8
[3], 330 K | – | 67.7
[3], 340 K | – | 68.7
[3], 350 K | – | 69.1
[3], 360 K | – | 69.5
[3], 370 K | – | 70.5
[3], 380 K | – | 71.2
[3], 390 K | – | 71.2
[3], 400 K | – | 72.5
[3], 410 K | – | 72.8
[3], 420 K | – | 73.4
[3], 430 K | – | 73.5
[3], 440 K | – | 74.4
[3], 450 K | – | 74.6
[3], 460 K | – | 74.9
[3], 470 K | – | 75.5
[3], 480 K | – | 76.2
[3], 490 K | – | 76.4
[3], 500 K | – | 76.5
[3], 510 K | – | 76.6
[3], 520 K | – | 76.7
[3], 530 K | – | 77.1
[3], 540 K | – | 77
[3], 550 K | – | 77.1
[3], 560 K | – | 77.3
[3], 570 K | – | 77.9
[3], 580 K | – | 78.2
[3], 590 K | – | 79
[3], 600 K | – | 79.1
[3], 610 K | – | 79.7
[3], 620 K | – | 79.4
[3], 630 K | – | 79.6
[3], 640 K | – | 80.3
[3], 650 K | – | 79.8
[3], 660 K | – | 80.5
[3], 670 K | – | 80.5
[3], 680 K | – | 80.7
[3], 690 K | – | 81.1
[3], 700 K | – | 80.4
[3], 710 K | – | 80.8
[3], 720 K | – | 81.2
[3], 730 K | – | 81.7
[3], 740 K | – | 82.2
[3], 750 K | – | 82.9
[3], 760 K | – | 82.4
[3], 770 K | – | 82.7
[3], 780 K | – | 83.4
[3], 790 K | – | 83.9
[3], 800 K | – | 83.7
[3], 810 K | – | 84.1
[3], 820 K | – | 83.8
[3], 830 K | – | 84.2
[3], 840 K | – | 84.1
[3], 850 K | – | 83.7
[3], 860 K | – | 84.1
[3], 870 K | – | 84.5
[4], From pellet mass and volume | 10570 | –
[4], X-ray diffraction | 10970 | –
[4], buoyancy | 10660 | –

[O-2].[O-2].[Th+4] [thorium dioxide]
Details | mass density [kg/m3] | molar heat capacity at constant pressure [J/K/mol]
[3], 300 K | – | 62.1
[3], 310 K | – | 61.8
[3], 320 K | – | 62.8
[3], 330 K | – | 63.5
[3], 340 K | – | 64.2
[3], 350 K | – | 65.1
[3], 360 K | – | 65.6
[3], 370 K | – | 65.9
[3], 380 K | – | 66.8
[3], 390 K | – | 67.3
[3], 400 K | – | 67.7
[3], 410 K | – | 68
[3], 420 K | – | 68.4
[3], 430 K | – | 68.6
[3], 440 K | – | 68.9
[3], 450 K | – | 69.6
[3], 460 K | – | 69.8
[3], 470 K | – | 70.1
[3], 480 K | – | 70.2
[3], 490 K | – | 70.5
[3], 500 K | – | 70.7
[3], 510 K | – | 70.9
[3], 520 K | – | 71.2
[3], 530 K | – | 71.4
[3], 540 K | – | 71.7
[3], 550 K | – | 71.9
[3], 560 K | – | 72
[3], 570 K | – | 72.1
[3], 580 K | – | 72.3
[3], 590 K | – | 72.5
[3], 600 K | – | 72.5
[3], 610 K | – | 72.5
[3], 620 K | – | 73
[3], 630 K | – | 73
[3], 640 K | – | 73.3
[3], 650 K | – | 73.6
[3], 660 K | – | 73.5
[3], 670 K | – | 73.6
[3], 680 K | – | 73.6
[3], 690 K | – | 73.4
[3], 700 K | – | 73.8
[3], 710 K | – | 74.5
[3], 720 K | – | 74.5
[3], 730 K | – | 74.6
[3], 739 K | – | 74.7
[3], 750 K | – | 74.6
[3], 760 K | – | 75
[3], 770 K | – | 75.3
[3], 780 K | – | 75.3
[3], 790 K | – | 75.3
[3], 800 K | – | 75.7
[3], 810 K | – | 75.7
[3], 820 K | – | 75.7
[3], 830 K | – | 75.9
[3], 840 K | – | 76
[3], 850 K | – | 76.1
[3], 860 K | – | 76.4
[3], 870 K | – | 76.1
[4], From pellet mass and volume | 9390 | –
[4], X-ray diffraction | 10000 | –
[4], buoyancy | 9430 | –
